# Measured values reported in ChEMBL document CHEMBL2417484, “Mitotic kinesin Eg5 overcomes inhibition to the phase I/II clinical candidate SB743921 by an allosteric resistance mechanism” (J Med Chem, 2013).
# Residue numbers refer to the chain shown, from its start.
# Legend:
# [1] = target: T1, Kinesin-like protein KIF11 (Homo sapiens) (UniProt P52732); test: Inhibition of microtubule-stimulated ATPase activity of N-terminal His-6-tagged human wild type Eg5 (1 to 368) expressed in Escherichia coli BL21 by pyruvate kinase/lactate dehydrogenase-linked assay relative to control
# T1 sequence (whole entry): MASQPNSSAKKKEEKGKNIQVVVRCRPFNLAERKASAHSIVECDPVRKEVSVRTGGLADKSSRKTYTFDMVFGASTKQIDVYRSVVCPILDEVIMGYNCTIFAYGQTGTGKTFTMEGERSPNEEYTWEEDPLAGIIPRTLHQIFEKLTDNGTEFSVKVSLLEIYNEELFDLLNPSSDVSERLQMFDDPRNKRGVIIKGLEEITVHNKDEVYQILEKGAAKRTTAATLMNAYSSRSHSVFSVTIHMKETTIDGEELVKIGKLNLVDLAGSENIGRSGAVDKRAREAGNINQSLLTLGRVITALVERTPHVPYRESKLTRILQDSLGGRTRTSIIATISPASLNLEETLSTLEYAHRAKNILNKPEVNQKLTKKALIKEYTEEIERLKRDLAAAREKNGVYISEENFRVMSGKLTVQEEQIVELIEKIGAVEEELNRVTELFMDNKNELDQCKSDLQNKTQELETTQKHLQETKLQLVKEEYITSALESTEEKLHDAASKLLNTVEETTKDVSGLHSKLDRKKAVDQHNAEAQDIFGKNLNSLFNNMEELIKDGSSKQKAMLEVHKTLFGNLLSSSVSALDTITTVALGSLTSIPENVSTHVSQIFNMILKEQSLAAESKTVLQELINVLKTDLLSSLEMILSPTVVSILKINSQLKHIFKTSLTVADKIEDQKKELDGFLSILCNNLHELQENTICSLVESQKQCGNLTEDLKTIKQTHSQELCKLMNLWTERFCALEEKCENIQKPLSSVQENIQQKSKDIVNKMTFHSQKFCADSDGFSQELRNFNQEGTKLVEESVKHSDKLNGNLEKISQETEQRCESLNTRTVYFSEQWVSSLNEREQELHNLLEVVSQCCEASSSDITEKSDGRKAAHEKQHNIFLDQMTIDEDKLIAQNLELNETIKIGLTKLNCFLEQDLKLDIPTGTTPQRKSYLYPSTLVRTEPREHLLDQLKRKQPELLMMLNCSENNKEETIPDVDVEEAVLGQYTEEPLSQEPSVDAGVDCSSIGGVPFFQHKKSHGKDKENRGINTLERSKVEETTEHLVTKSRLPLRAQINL
# [2] = test system: T2, Kinesin-like protein KIF11 (Homo sapiens), P52732 [D130V]; test: Inhibition of microtubule-stimulated ATPase activity of human Eg5 D130V mutant expressed in Escherichia coli BL21 by pyruvate kinase/lactate dehydrogenase-linked assay relative to control
# T2 sequence (whole entry): T1 sequence (whole entry) with D130V
# [3] = test system: T3, Kinesin-like protein KIF11 (Homo sapiens), P52732 [D130V,A133D]; test: Inhibition of microtubule-stimulated ATPase activity of human Eg5 D130V/A133D mutant expressed in Escherichia coli BL21 by pyruvate kinase/lactate dehydrogenase-linked assay relative to control
# T3 sequence (whole entry): T1 sequence (whole entry) with D130V, A133D
# [4] = test system: T4, Kinesin-like protein KIF11 (Homo sapiens), P52732 [A133D]; test: Inhibition of microtubule-stimulated ATPase activity of human Eg5 A133D mutant expressed in Escherichia coli BL21 by pyruvate kinase/lactate dehydrogenase-linked assay relative to control
# T4 sequence (whole entry): T1 sequence (whole entry) with A133D
smiles,measurement,setting,value
Cc1ccc(C(=O)N(CCCN)[C@@H](c2oc3cc(Cl)ccc3c(=O)c2Cc2ccccc2)C(C)C)cc1,ICmax,[1],95%
same,ICmax,[2],50%
same,ICmax,[3],10%
same,ICmax,[4],50%
